Assay results taken from EP4603105A1, “PHARMACEUTICAL COMPOSITION CONTAINING CYCLIC COMPOUND HAVING SELECTIVE KRAS INHIBITORY EFFECT AGAINST HRAS AND NRAS” (CHUGAI SEIYAKU KABUSHIKI KAISHA, priority 2022, dated 2024).
Where a SMILES comes first, the peptide text is derived from it. Bridges are numbered along the chain shown (N, C = ends). [ ]: non-standard residue; d: D form. hPhe(3-Cl-4-CF3) = N[C@@H](CCc1ccc(C(F)(F)F)c(Cl)c1)C(=O)O; NPrPhe(4-CF3) = CCCN[C@@H](Cc1ccc(C(F)(F)F)cc1)C(=O)O; NMeGly(cPent) = CN[C@H](C(=O)O)C1CCCC1; Pro(4,4-F2) = O=C(O)[C@@H]1CC(F)(F)CN1; Hyp = O=C(O)[C@@H]1C[C@@H](O)CN1; NMeL = CN[C@@H](CC(C)C)C(=O)O; NMeA = CN[C@@H](C)C(=O)O; Ac5c = NC1(C(=O)O)CCCC1; Aze = O=C(O)[C@@H]1CCN1; Ac4c = NC1(C(=O)O)CCC1; Sar = CNCC(=O)O

Columns and labels:
[1] = molecular target: GDP-bound NRAS wild-type protein (Homo sapiens, UniProt P01111); assay: Binding to NRAS by surface plasmon resonance (SPR), KD and KD ratio to KRAS
Sequence of GDP-bound NRAS wild-type protein (P01111 whole entry): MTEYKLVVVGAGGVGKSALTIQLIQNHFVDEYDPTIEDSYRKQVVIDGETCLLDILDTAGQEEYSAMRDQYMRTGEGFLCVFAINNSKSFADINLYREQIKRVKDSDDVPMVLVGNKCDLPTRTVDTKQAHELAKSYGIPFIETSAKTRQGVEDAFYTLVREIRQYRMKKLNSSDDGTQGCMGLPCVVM
Method in brief: (§1)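 Each cycle, GDP-bound biotin-Avi RAS was captured (~100–300 RU), compound concentrations were injected low to high for 75 s each at 100 µL/min, then the chip was regenerated. Buffer: HBS pH 7.4, 10 mM MgCl2, 10 µM GDP, 1 mM DTT, 4% DMSO; 30°C. KD from a 1:1 binding model.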

[2] = system: human lung cancer strain NCI-H441; format: cell-based
Method in brief: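 Signal came from […] measured per well once the reagent was added. Beforehand, cells were cultured at 37°C and 5% carbon dioxide on a compound series serially diluted in dimethyl sulfoxide.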

[3] = molecular target: HRAS wild-type protein (Homo sapiens, UniProt P01112); assay: Binding to HRAS by surface plasmon resonance (SPR), KD and KD ratio to KRAS
Sequence of HRAS wild-type protein (P01112 whole entry): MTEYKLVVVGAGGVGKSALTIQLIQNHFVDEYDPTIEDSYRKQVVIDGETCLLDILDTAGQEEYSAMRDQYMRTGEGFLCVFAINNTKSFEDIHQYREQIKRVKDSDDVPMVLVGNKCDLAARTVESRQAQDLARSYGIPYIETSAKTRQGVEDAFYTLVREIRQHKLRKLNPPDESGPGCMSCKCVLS
Method in brief: as §1

[4] = ratio of KD for GDP-bound NRAS wild-type protein to KD for KRAS
[5] = ratio of KD for HRAS wild-type protein to KD for KRAS
[6] = ratio of the KD value with respect to GDP-bound NRAS wild-type protein to the KD value with respect to KRAS
[7] = ratio of the KD value with respect to HRAS wild-type protein to the KD value with respect to KRAS

SMILES | NRAS /KRAS [1, 4] | IC50 [2] | HRAS /KRAS [3, 5] | NRAS /KRAS [1, 6] | HRAS /KRAS [3, 7]
CCCN1C(=O)CN(C)C(=O)[C@@H]2CCN2C(=O)[C@H]([C@@H](C)CC)NC(=O)[C@H](CC(C)C)N(C)C(=O)C[C@@H](C(=O)N(C)C)NC(=O)[C@H](C2CCCC2)N(C)C(=O)C2(CCCC2)NC(=O)[C@@H]2CCCN2C(=O)[C@H](CCc2ccc(C(F)(F)F)c(Cl)c2)NC(=O)CN(C)C(=O)[C@@H]1Cc1ccc(C(F)(F)F)cc1 [PP0373] ([NMeL]I[Aze][Sar][NPrPhe(4-CF3)][Sar][hPhe(3-Cl-4-CF3)]P[Ac5c][NMeGly(cPent)]D-NMe2; lactam N-11) | B (a compound having 3 or more and less than 10 is denoted as B) | 0.152 µM | B (a compound having 3 or more and less than 10 is denoted as B) | – | –
CCCN1C(=O)CN(C)C(=O)[C@@H]2CCN2C(=O)[C@H]([C@@H](C)CC)NC(=O)[C@H](CC(C)C)N(C)C(=O)C[C@@H](C(=O)N(C)C)NC(=O)[C@H](C2CCCC2)N(C)C(=O)C2(CCC2)NC(=O)[C@@H]2CCCN2C(=O)[C@H](CCc2ccc(C(F)(F)F)c(Cl)c2)NC(=O)CN(C)C(=O)[C@@H]1Cc1ccc(C(F)(F)F)cc1 [PP0374] ([NMeL]I[Aze][Sar][NPrPhe(4-CF3)][Sar][hPhe(3-Cl-4-CF3)]P[Ac4c][NMeGly(cPent)]D-NMe2; lactam N-11) | B (a compound having 3 or more and less than 10 is denoted as B) | 0.142 µM | B (a compound having 3 or more and less than 10 is denoted as B) | – | –
CCCN1C(=O)CN(C)C(=O)[C@@H]2CCN2C(=O)[C@H]([C@@H](C)CC)NC(=O)[C@H](CC(C)C)N(C)C(=O)C[C@@H](C(=O)N(C)C)NC(=O)[C@H](C2CCCC2)N(C)C(=O)C2(CCCC2)NC(=O)[C@@H]2CC(F)(F)CN2C(=O)[C@H](CCc2ccc(C(F)(F)F)c(Cl)c2)NC(=O)CN(C)C(=O)[C@@H]1Cc1ccc(C(F)(F)F)cc1 [PP0375] ([NMeL]I[Aze][Sar][NPrPhe(4-CF3)][Sar][hPhe(3-Cl-4-CF3)][Pro(4,4-F2)][Ac5c][NMeGly(cPent)]D-NMe2; lactam N-11) | B (a compound having 3 or more and less than 10 is denoted as B) | 0.0571 µM | B (a compound having 3 or more and less than 10 is denoted as B) | – | –
CCCN1C(=O)CN(C)C(=O)[C@@H]2CCN2C(=O)[C@H]([C@@H](C)CC)NC(=O)[C@H](CC(C)C)N(C)C(=O)C[C@@H](C(=O)N(C)C)NC(=O)[C@H](C2CCCC2)N(C)C(=O)C2(CCCC2)NC(=O)[C@@H]2C[C@@H](OCC)CN2C(=O)[C@H](CCc2ccc(C(F)(F)F)c(Cl)c2)NC(=O)CN(C)C(=O)[C@@H]1Cc1ccc(C(F)(F)F)cc1 [PP0377] ([NMeL]I[Aze][Sar][NPrPhe(4-CF3)][Sar][hPhe(3-Cl-4-CF3)][Hyp](Et)[Ac5c][NMeGly(cPent)]D-NMe2; lactam N-11) | B (a compound having 3 or more and less than 10 is denoted as B) | 0.0334 µM | C (A compound having a KD ratio of 0.1 or more and less than 3 is denoted as C) | – | –
CCCN1C(=O)[C@@H]2CCN2C(=O)[C@H](C)N(C)C(=O)[C@H]([C@@H](C)CC)NC(=O)[C@H](CC(C)C)N(C)C(=O)C[C@@H](C(=O)N(C)C)NC(=O)[C@H](C2CCCC2)N(C)C(=O)C2(CCCC2)NC(=O)[C@@H]2CCCN2C(=O)[C@H](CCc2ccc(C(F)(F)F)c(Cl)c2)NC(=O)CN(C)C(=O)[C@@H]1Cc1ccc(C(F)(F)F)cc1 [PP0379] ([NMeL]I[NMeA][Aze][NPrPhe(4-CF3)][Sar][hPhe(3-Cl-4-CF3)]P[Ac5c][NMeGly(cPent)]D-NMe2; lactam N-11) | C (A compound having a KD ratio of 0.1 or more and less than 3 is denoted as C) | 0.0044 µM | B (a compound having 3 or more and less than 10 is denoted as B) | – | –
CCCN1C(=O)[C@@H]2CCN2C(=O)[C@H](C)N(C)C(=O)[C@H]([C@@H](C)CC)NC(=O)[C@H](CC(C)C)N(C)C(=O)C[C@@H](C(=O)N(C)C)NC(=O)[C@H](C2CCCC2)N(C)C(=O)C2(CCC2)NC(=O)[C@@H]2CCCN2C(=O)[C@H](CCc2ccc(C(F)(F)F)c(Cl)c2)NC(=O)CN(C)C(=O)[C@@H]1Cc1ccc(C(F)(F)F)cc1 [PP0380] ([NMeL]I[NMeA][Aze][NPrPhe(4-CF3)][Sar][hPhe(3-Cl-4-CF3)]P[Ac4c][NMeGly(cPent)]D-NMe2; lactam N-11) | C (A compound having a KD ratio of 0.1 or more and less than 3 is denoted as C) | 0.0164 µM | B (a compound having 3 or more and less than 10 is denoted as B) | – | –
CCCN1C(=O)[C@@H]2CCN2C(=O)[C@H](C)N(C)C(=O)[C@H]([C@@H](C)CC)NC(=O)[C@H](CC(C)C)N(C)C(=O)C[C@@H](C(=O)N(C)C)NC(=O)[C@H](C2CCCC2)N(C)C(=O)C2(CCCC2)NC(=O)[C@@H]2CC(F)(F)CN2C(=O)[C@H](CCc2ccc(C(F)(F)F)c(Cl)c2)NC(=O)CN(C)C(=O)[C@@H]1Cc1ccc(C(F)(F)F)cc1 [PP0381] ([NMeL]I[NMeA][Aze][NPrPhe(4-CF3)][Sar][hPhe(3-Cl-4-CF3)][Pro(4,4-F2)][Ac5c][NMeGly(cPent)]D-NMe2; lactam N-11) | C (A compound having a KD ratio of 0.1 or more and less than 3 is denoted as C) | 0.0111 µM | B (a compound having 3 or more and less than 10 is denoted as B) | – | –
CCCN1C(=O)[C@@H]2CCN2C(=O)[C@H](C)N(C)C(=O)[C@H]([C@@H](C)CC)NC(=O)[C@H](CC(C)C)N(C)C(=O)C[C@@H](C(=O)N(C)C)NC(=O)[C@H](C2CCCC2)N(C)C(=O)C2(CCC2)NC(=O)[C@@H]2CC(F)(F)CN2C(=O)[C@H](CCc2ccc(C(F)(F)F)c(Cl)c2)NC(=O)CN(C)C(=O)[C@@H]1Cc1ccc(C(F)(F)F)cc1 [PP0382] ([NMeL]I[NMeA][Aze][NPrPhe(4-CF3)][Sar][hPhe(3-Cl-4-CF3)][Pro(4,4-F2)][Ac4c][NMeGly(cPent)]D-NMe2; lactam N-11) | C (A compound having a KD ratio of 0.1 or more and less than 3 is denoted as C) | 0.0121 µM | B (a compound having 3 or more and less than 10 is denoted as B) | – | –
CCCN1C(=O)[C@@H]2CCN2C(=O)[C@H](C)N(C)C(=O)[C@H]([C@@H](C)CC)NC(=O)[C@H](CC(C)C)N(C)C(=O)C[C@@H](C(=O)N(C)C)NC(=O)[C@H](C2CCCC2)N(C)C(=O)C2(CCCC2)NC(=O)[C@@H]2C[C@@H](OCC)CN2C(=O)[C@H](CCc2ccc(C(F)(F)F)c(Cl)c2)NC(=O)CN(C)C(=O)[C@@H]1Cc1ccc(C(F)(F)F)cc1 [PP0383] ([NMeL]I[NMeA][Aze][NPrPhe(4-CF3)][Sar][hPhe(3-Cl-4-CF3)][Hyp](Et)[Ac5c][NMeGly(cPent)]D-NMe2; lactam N-11) | C (A compound having a KD ratio of 0.1 or more and less than 3 is denoted as C) | 0.0026 µM | B (a compound having 3 or more and less than 10 is denoted as B) | – | –
CCCN1C(=O)[C@@H]2CCN2C(=O)[C@H](C)N(C)C(=O)[C@H]([C@@H](C)CC)NC(=O)[C@H](CC(C)C)N(C)C(=O)C[C@@H](C(=O)N(C)C)NC(=O)[C@H](C2CCCC2)N(C)C(=O)C2(CCC2)NC(=O)[C@@H]2C[C@@H](OCC)CN2C(=O)[C@H](CCc2ccc(C(F)(F)F)c(Cl)c2)NC(=O)CN(C)C(=O)[C@@H]1Cc1ccc(C(F)(F)F)cc1 [PP0384] ([NMeL]I[NMeA][Aze][NPrPhe(4-CF3)][Sar][hPhe(3-Cl-4-CF3)][Hyp](Et)[Ac4c][NMeGly(cPent)]D-NMe2; lactam N-11) | C (A compound having a KD ratio of 0.1 or more and less than 3 is denoted as C) | 0.007 µM | B (a compound having 3 or more and less than 10 is denoted as B) | – | –
CCCN1C(=O)[C@@H]2CCN2C(=O)CN(C)C(=O)[C@H]([C@@H](C)CC)NC(=O)[C@H](CC(C)C)N(C)C(=O)C[C@@H](C(=O)N(C)C)NC(=O)[C@H](C2CCCC2)N(C)C(=O)C2(CCC2)NC(=O)[C@@H]2CCCN2C(=O)[C@H](CCc2ccc(C(F)(F)F)c(Cl)c2)NC(=O)CN(C)C(=O)[C@@H]1Cc1ccc(C(F)(F)F)cc1 [PP0386] ([NMeL]I[Sar][Aze][NPrPhe(4-CF3)][Sar][hPhe(3-Cl-4-CF3)]P[Ac4c][NMeGly(cPent)]D-NMe2; lactam N-11) | C (A compound having a KD ratio of 0.1 or more and less than 3 is denoted as C) | 0.0296 µM | B (a compound having 3 or more and less than 10 is denoted as B) | – | –
CCCN1C(=O)[C@@H]2CCN2C(=O)CN(C)C(=O)[C@H]([C@@H](C)CC)NC(=O)[C@H](CC(C)C)N(C)C(=O)C[C@@H](C(=O)N(C)C)NC(=O)[C@H](C2CCCC2)N(C)C(=O)C2(CCCC2)NC(=O)[C@@H]2CC(F)(F)CN2C(=O)[C@H](CCc2ccc(C(F)(F)F)c(Cl)c2)NC(=O)CN(C)C(=O)[C@@H]1Cc1ccc(C(F)(F)F)cc1 [PP0387] ([NMeL]I[Sar][Aze][NPrPhe(4-CF3)][Sar][hPhe(3-Cl-4-CF3)][Pro(4,4-F2)][Ac5c][NMeGly(cPent)]D-NMe2; lactam N-11) | – | 0.02 µM | – | C (A compound having a KD ratio of 0.1 or more and less than 3 is denoted as C) | B (a compound having 3 or more and less than 10 is denoted as B)
CCCN1C(=O)[C@@H]2CCN2C(=O)CN(C)C(=O)[C@H]([C@@H](C)CC)NC(=O)[C@H](CC(C)C)N(C)C(=O)C[C@@H](C(=O)N(C)C)NC(=O)[C@H](C2CCCC2)N(C)C(=O)C2(CCC2)NC(=O)[C@@H]2CC(F)(F)CN2C(=O)[C@H](CCc2ccc(C(F)(F)F)c(Cl)c2)NC(=O)CN(C)C(=O)[C@@H]1Cc1ccc(C(F)(F)F)cc1 [PP0388] ([NMeL]I[Sar][Aze][NPrPhe(4-CF3)][Sar][hPhe(3-Cl-4-CF3)][Pro(4,4-F2)][Ac4c][NMeGly(cPent)]D-NMe2; lactam N-11) | – | 0.0116 µM | – | C (A compound having a KD ratio of 0.1 or more and less than 3 is denoted as C) | B (a compound having 3 or more and less than 10 is denoted as B)
